Common to all, as to assay: ESI-MS, negative mode
Test [1] concerns 20 mer double strand DNA (dsDNA) (DNA, duplex) GTCCATGCCCCAGGCCCACC/GGTGGGCCTGGGGCATGGAC
Conditions: ammonium acetate 15 mM, 10-fold molar excess of compound, room temperature, 24 h, diluted 1:10, pH 6.8.

For test [2], the system named is ssDNA2 (DNA, single strand) GGTGGGCCTGGGGCATGGAC
Conditions: ammonium acetate 15 mM, 10-fold molar excess over dsDNA, 24 h, ssDNA in equilibrium with dsDNA.

For test [3], the system named is ssDNA1 (DNA, single strand) GTCCATGCCCCAGGCCCACC
Conditions: ammonium acetate 15 mM, 10-fold molar excess over dsDNA, 24 h, ssDNA in equilibrium with dsDNA.

From PMC7997382 (2020) come the findings set out here.

Molecules are shown by their SMILES.

As for `N.N.[Cl-].[Cl-].[Pt+2]`, the binding result in test [1] (covalent, each cisplatin lost both chloride ligands) is “yes”.

`C=C.CC(=O)OC[C@H]1O[C@@H](N2[C]N(C)C=C2)[C@H](OC(C)=O)[C@@H](OC(C)=O)[C@@H]1OC(C)=O.Cc1ccc2ccc3ccc(C)nc3c2n1.[CH3-].[Pt+2]`: the values for the binding result in test [2] (no adduct peak), in test [1] and in test [3] (no adduct peak) were “no”, “yes” and “no”, respectively.

As to `CC(=O)OC[C@H]1O[C@@H](N2[C]N(C)C=C2)[C@H](OC(C)=O)[C@@H](OC(C)=O)[C@@H]1OC(C)=O.[CH3-].[CH3-].[CH3-].[Pt+4].c1cnc2c(c1)ccc1cccnc12`, the binding entry in test [2] (partial binding) is “weak”; in test [1], “yes”; in test [3] (partial binding) it was “weak”.
